Source: patent US4254056A, “2-Aminomethyl phenol derivative and process for preparing thereof” (Ono Pharmaceutical Co., Ltd., priority 1977, dated 1981)

Tests used:
[1] = Diuretic effect on rats: urinary volume during a 5 hour period after oral administration; type: in vivo, Wister male rats; settings: 3 mg/kg oral; for Urine discharge (in words): Wister male rats; for Urinary volume relative to control: starved rats, 5 hour period after administration, control taken as 100%
Description: About 16 hours before oral administration with 3 mg/kg of the compounds, the rats were starved, with only water available. The urinary volume during a 5 hour period after administration was compared with that of the control groups, taking the urinary volume of the latter as 100%.

[2] = tested on: Carrageenan-Induced Edema in Rat Paws; assay: Anti-inflammatory effect on carrageenan-induced edema in rat paws (oral); type: in vivo, Wister male rats; settings: for % Inhibition of Foot Edema: 1 hour before carrageenan, swelling at third hour, control taken as 100%; for Inhibition of carrageenan-induced edema (in words): oral, Wister male rats
Description: One hour after oral administration with these compounds, the rats were subcutaneously injected with 0.1 m of 1% carrageenan suspension on the plantar surface of the right hind foot. The swelling was measured at the third hour of carrageenan injection. Anti-inflammatory effect of the compounds was determined as percentage inhibition of the swelling, taking the swelling in the control groups as 100%.

| SMILES | Urine discharge (in words) [1] | Urinary volume relative to control [1] [%] | % Inhibition of Foot Edema ([2]; 10 mg/kg oral) [%] | % Inhibition of Foot Edema ([2]; 30 mg/kg oral) [%] | Inhibition of carrageenan-induced edema (in words) [2] |
| --- | --- | --- | --- | --- | --- |
| Br.NCc1c(O)c(I)cc2c1CCCC2 [1-Aminomethyl-3-iodo-5,6,7,8-tetrahydro-2-naphthol Hydrobromide] | discharged increased amounts of urine | 142 | 55.6 | 68.8 | had carrageenan-induced edema in their paws inhibited |
| CC1CCc2c1cc(CN)c(O)c2I.Cl (stereo not shown) [1-Methyl-4-iodo-6-aminomethyl-5-indanol hydrochloride] | discharged increased amounts of urine | 208 |  |  |  |
| Cl.NCc1cc2c(c(I)c1O)CCC2 [4-Iodo-6-aminomethyl-5-indanol Hydrochloride] | discharged increased amounts of urine | 138 | 41.1 | 55.8 | had carrageenan-induced edema in their paws inhibited |
| Br.NCc1cc2c(c(I)c1O)CCCC2 [1-Iodo-3-aminomethyl-5,6,7,8-tetrahydro-2-naphthol Hydrobromide] | discharged increased amounts of urine | 226 | 68.8 | 69.6 | had carrageenan-induced edema in their paws inhibited |
| CC1(C)CCCc2c1cc(CN)c(O)c2I.Cl [1-Iodo-3-aminomethyl-5,5-dimethyl-5,6,7,8-tetrahydro-2-naphthol Hydrochloride] |  |  | 44.1 | 66.3 | had carrageenan-induced edema in their paws inhibited |
| CN(C)Cc1cc2c(c(I)c1O)CCCC2.Cl [1-Iodo-3-(N,N-dimethylaminomethyl)-5,6,7,8-tetrahydro-2-naphthol Hydrochloride] | discharged increased amounts of urine | 232 |  |  |  |
